# Assay: recombinant barcode read abundance after kanamycin selection (control-corrected) (log10(CPM+1)); higher = more efficient recombination; sequences stand for … in AGTGCAGAGAAAATCGGCCAGTTTTCTCTGCCTGCAGTCCGCATGCCGT…AGATTTATGCAGCGGACTGCCTTTCTCCCAAAGTGATAAACCGGACAGTATCATGGACCGGTTTTCCCGGTAATCCGTATTTGCAAGGTTGGTTTCACT; site = the 11-nt target
# Procedure, shortened: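 Recombination efficiency comes from barcode counts at recombinant junctions, converted to counts per million, averaged and corrected against the control. Values appear as log10(CPM+1). They were obtained from a pooled E. coli screen in which each oligo paired a target with an IS621 bridge RNA target-binding loop, and cells were plated in duplicate on chloramphenicol/ampicillin LB agar or on chloramphenicol/ampicillin/kanamycin with 0.1 mM IPTG.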
# 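Further: IS621 recombinase and bridge RNA in Escherichia coli cells.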
row,Sequence,recombinant barcode read abundance (log10)
1,CGTTGTTCTTGGGTTCTAACCTGTTGCCT (site CGTTGATCTAG),0.0873
2,GGATGCACTTGGGTTCTAACCTGTTGCCA (site GGATCCACTTG),0.00874
3,AAGGCTACTTGGGTTCTAACCTGTTGCCT (site AAGGCTTCTAG),0.144
4,GATCCTACTTGGGTTCTAACCTGTTGCCA (site GATCCTACTTG),0.315
5,AAGGTCACTTGGGTTCTAACCTGTTGCCT (site AGGGTCACTAG),0.0802
6,CAAAATTCTTGGGTTCTAACCTGTTGCGT (site CAAAATTCTAC),0.703
7,GTACGGCCTTGGGTTCTAACCTGTTGCCT (site GTACTGCCTAG),0.0887
8,GTCTGTTCTTGGGTTCTAACCTGTTGCCT (site GCCTGTTCTAG),0.071
9,TAGACTACTTGGGTTCTAACCTGTTGCTG (site TAGACTACTTA),0.0595
10,TATTATACTTGGGTTCTAACCTGTTGCCT (site TATTATACTAT),0.467
11,TACCTTACTTGGGTTCTAACCTGTTGCAG (site TACCTTACTCT),0.897
12,CCGAATCCTTGGGTTCTAACCTGTTGCCT (site CCGACTCCTAG),0.361
13,GAGACTCCTTGGGTTCTAACCTGTTGCTA (site GAGACTCCTTA),0.392
14,TGTAATCCTTGGGTTCTAACCTGTTGCCT (site TGTAATACTAG),0.327
15,ATAATAGCTTGGGTTCTAACCTGTTGCAT (site GTAATAGCTAT),0.0687
16,CGATTTCCTTGGGTTCTAACCTGTTGCAT (site CGATTTCCTAT),0.0511
17,ACTATGTCTTGGGTTCTAACCTGTTGCCA (site CCTATGTCTTA),0.00838
18,GCGCTCCCTTGGGTTCTAACCTGTTGCCT (site GCTCTCCCTAG),0.145
19,TTAACTACTTGGGTTCTAACCTGTTGCTT (site TTAACTACTAA),0.0821
20,CTAGGCCCTTGGGTTCTAACCTGTTGCGT (site CTAGGCCCTAC),3.3
21,CAACGAGCTTGGGTTCTAACCTGTTGCCG (site CAGCGAGCTCG),0
22,GCTTTGACTTGGGTTCTAACCTGTTGCCT (site GCTTTGACTAG),0.788

row,Sequence,recombinant barcode read abundance (log10)
1,GAGGAGTCTTGGGTTCTAACCTGTTGCCT (site GAGGAGTCTAG),2.55
2,AGTGACTCTTGGGTTCTAACCTGTTGCCT (site AGTCTCTCTAG),0.0765
3,AGGTATGCTTGGGTTCTAACCTGTTGCCT (site AGGTCTGCTAG),0.0877
4,CTCGCTCCTTGGGTTCTAACCTGTTGCTG (site AATAAGTCTAT),0.102
5,GCAGAGTCTTGGGTTCTAACCTGTTGCCT (site GCAGAGTCTAG),2.1
6,CTGGTTCCTTGGGTTCTAACCTGTTGCCT (site CTGGTTCCTAG),1.2
7,GTGTGTGCTTGGGTTCTAACCTGTTGCCT (site GTGTGTCCTAG),0.0466
8,GTGGGCTCTTGGGTTCTAACCTGTTGCCT (site CTGGGCTCTTG),0.0529
9,GCGCTCCCTTGGGTTCTAACCTGTTGCCT (site GCCCTCCCTAG),0.388
10,GTCTAATCTTGGGTTCTAACCTGTTGCCT (site GTCTCATCTAG),0.271
11,TATCCGACTTGGGTTCTAACCTGTTGCCT (site TATCCGACTAG),1.12
12,TTAGAGCCTTGGGTTCTAACCTGTTGCCT (site TTAGAGACTAG),0.0939
13,CCGTGAACTTGGGTTCTAACCTGTTGCCT (site CTGTGAACTAG),0.163
14,AGCAGTGCTTGGGTTCTAACCTGTTGCCT (site AGCATTCCTAG),0.0332
15,GAGGAGTCTTGGGTTCTAACCTGTTGCCT (site GAGTAGTCTAG),0.171
16,ATCGAGTCTTGGGTTCTAACCTGTTGCCA (site CAAATCCCTAC),0.112
17,CACAGCACTTGGGTTCTAACCTGTTGCCT (site CACAACACTAG),0.065
18,GGATTCACTTGGGTTCTAACCTGTTGCCA (site GGATACACTTG),0.0986
19,GTGAAGCCTTGGGTTCTAACCTGTTGCCA (site GTGTATCCTTG),0.165
20,ACACTAGCTTGGGTTCTAACCTGTTGCTG (site ACACTAGCTCA),1.19
21,TCTCAGCCTTGGGTTCTAACCTGTTGCCT (site TCTCGGCCTAG),0.291
22,CATCCTCCTTGGGTTCTAACCTGTTGCTT (site CATCCTCCTAA),0.0487

row,Sequence,recombinant barcode read abundance (log10)
1,GCGAATCCTTGGGTTCTAACCTGTTGCCT (site GCGCATCCTAG),0.213
2,TGCTCTACTTGGGTTCTAACCTGTTGCTT (site TGTTCTACTAA),0.00634
3,ATGTCTACTTGGGTTCTAACCTGTTGCCA (site ATGTCTACTTG),0.0628
4,GGGACCTCTTGGGTTCTAACCTGTTGCTC (site GTGACCTCTCA),0.167
5,CACACGGCTTGGGTTCTAACCTGTTGCCT (site CACACCGCTAG),0.246
6,AGGCTGCCTTGGGTTCTAACCTGTTGCCT (site AGGCTGGCTAG),0.0502
7,GGCTCCTCTTGGGTTCTAACCTGTTGCCT (site CGCTCCTCTAG),0.0966
8,TAGCCTACTTGGGTTCTAACCTGTTGCGT (site TAGCCTACTGC),0.0357
9,CGATCGACTTGGGTTCTAACCTGTTGCAG (site CGATCGACTCT),0.809
10,GAATCCTCTTGGGTTCTAACCTGTTGCCT (site CAATCCTCTAG),0.531
11,CTTCGAGCTTGGGTTCTAACCTGTTGCTG (site CTTCGAGCTCA),1.52
12,TCTATCCCTTGGGTTCTAACCTGTTGCCT (site TCTATCCCTAG),0.203
13,GGTCCATCTTGGGTTCTAACCTGTTGCCT (site GGTCCATCTAG),0.161
14,CTAATATCTTGGGTTCTAACCTGTTGCAT (site CTAATATCTAT),1.26
15,TCACGTCCTTGGGTTCTAACCTGTTGCAG (site TCGCGTCCTCT),0.183
16,TAGTGTCCTTGGGTTCTAACCTGTTGCCT (site TAGTGTACTAG),0.126
17,CACGACCCTTGGGTTCTAACCTGTTGCCT (site CACGACCCTAG),2.05
18,TTGCGTGCTTGGGTTCTAACCTGTTGCTT (site TTGCGAGCTAT),0.27
19,AGCTAACCTTGGGTTCTAACCTGTTGCCT (site AGCTAACCTAG),0.407
20,CGTAGCTCTTGGGTTCTAACCTGTTGCCT (site CGGAGCTCTAG),0.134
21,CGGACGGCTTGGGTTCTAACCTGTTGCCT (site CGGACGGCTAG),0.215
22,TACTCTTCTTGGGTTCTAACCTGTTGCCT (site TACTCTTCTAG),0.279

row,Sequence,recombinant barcode read abundance (log10)
1,TAGACGACTTGGGTTCTAACCTGTTGCTT (site TAGACGACTAA),0.829
2,GATAGGGCTTGGGTTCTAACCTGTTGCCT (site GATAGGGCTAG),1.09
3,ACGAAGACTTGGGTTCTAACCTGTTGCCG (site ACGAAGACTCG),1.08
4,CGGTAGTCTTGGGTTCTAACCTGTTGCTG (site CGGTAGTCTAA),0.0345
5,CTACATCCTTGGGTTCTAACCTGTTGCTT (site CTACATCCTAA),1.49
6,AGTATCCCTTGGGTTCTAACCTGTTGCCG (site AGTATCCCTCG),0.461
7,TAGCTCCCTTGGGTTCTAACCTGTTGCCA (site TAGCTCCCTCG),0.0851
8,CATTAGCCTTGGGTTCTAACCTGTTGCCT (site CATAAGCCTAG),0.0881
9,TATGACGCTTGGGTTCTAACCTGTTGCCT (site TATGACGCTAG),1.12
10,ATGGTGGCTTGGGTTCTAACCTGTTGCCT (site ATGGTGGCTAG),1.81
11,CCTCAGTCTTGGGTTCTAACCTGTTGCTT (site CCTCAGTCTAA),1.68
12,TTAGAGCCTTGGGTTCTAACCTGTTGCCT (site TTAGAGCCTAG),2
13,TCTGGGGCTTGGGTTCTAACCTGTTGCAG (site TCTGGGGCTCG),0.159
14,ACAGGTACTTGGGTTCTAACCTGTTGCCT (site TCAGGTACTAG),0.456
15,ACTACTCCTTGGGTTCTAACCTGTTGCAG (site ACTGGTCCTCT),0.183
16,TGGACGTCTTGGGTTCTAACCTGTTGCCT (site TGGACGTCTAG),0.865
17,CTCCGGCCTTGGGTTCTAACCTGTTGCTT (site CTCCGCCCTAA),0.0895
18,TAGTGTTCTTGGGTTCTAACCTGTTGCCT (site TAGTGTGCTAG),0.106
19,AACTTGACTTGGGTTCTAACCTGTTGCCT (site AAGTTGACTAG),0.0706
20,CCTAACACTTGGGTTCTAACCTGTTGCCT (site GCTAACACTAG),0.0372
